Data: the NIST ThermoML archive (doi:10.1021/je1002048)
Numbers after ± are expanded uncertainties.

Columns and labels:
[1] = Liquid; for Normal boiling temperature: Ebulliometric method (Recirculating still)
[2] = excess molar enthalpy (molar enthalpy of mixing); xn = mol fraction of the nth substance listed; settings: 303.15 K, 101 kPa, Liquid, Calvet calorimetry

Compound	Normal boiling temperature [1]	excess molar enthalpy ([2]; x2 = 0.032)	excess molar enthalpy ([2]; x2 = 0.082)	excess molar enthalpy ([2]; x2 = 0.127)	excess molar enthalpy ([2]; x2 = 0.192)	excess molar enthalpy ([2]; x2 = 0.251)	excess molar enthalpy ([2]; x2 = 0.351)	excess molar enthalpy ([2]; x2 = 0.447)	excess molar enthalpy ([2]; x2 = 0.502)	excess molar enthalpy ([2]; x2 = 0.572)	excess molar enthalpy ([2]; x2 = 0.653)	excess molar enthalpy ([2]; x2 = 0.734)	excess molar enthalpy ([2]; x2 = 0.874)	mass density ([1]; 298.15 K, 101.33 kPa, Pycnometric method)
CCO [ethanol]	78.2 ± 0.1 °C	–	–	–	–	–	–	–	–	–	–	–	–	–
c1ccncc1 [pyridine] + CCO	–	-0.000359 ± 0.000191 kcal/mol	-0.00153 ± 0.000191 kcal/mol	-0.00308 ± 0.000239 kcal/mol	-0.00545 ± 0.000311 kcal/mol	-0.00827 ± 0.000406 kcal/mol	-0.0122 ± 0.00055 kcal/mol	-0.0172 ± 0.000741 kcal/mol	-0.0185 ± 0.000789 kcal/mol	-0.0189 ± 0.000813 kcal/mol	-0.0152 ± 0.000669 kcal/mol	-0.0126 ± 0.000574 kcal/mol	-0.00598 ± 0.000311 kcal/mol	–
c1ccncc1 [pyridine]	116 ± 0.1 °C	–	–	–	–	–	–	–	–	–	–	–	–	980.8 ± 1 kg/m3
